This note sets out measurements from patent US20260092074A1, “Annelated Pyridines as Steroidogenesis Inhibitors, Preparation Method and Use Thereof” (Guangzhou Vinnocent Pharmaceutical Limited, priority 2022, published 2026).

The target of one assay is T1, human CYP11B2 (Homo sapiens, UniProt P19099).
T1 construct: expressed in transfected cells
T1 sequence (P19099 25-503): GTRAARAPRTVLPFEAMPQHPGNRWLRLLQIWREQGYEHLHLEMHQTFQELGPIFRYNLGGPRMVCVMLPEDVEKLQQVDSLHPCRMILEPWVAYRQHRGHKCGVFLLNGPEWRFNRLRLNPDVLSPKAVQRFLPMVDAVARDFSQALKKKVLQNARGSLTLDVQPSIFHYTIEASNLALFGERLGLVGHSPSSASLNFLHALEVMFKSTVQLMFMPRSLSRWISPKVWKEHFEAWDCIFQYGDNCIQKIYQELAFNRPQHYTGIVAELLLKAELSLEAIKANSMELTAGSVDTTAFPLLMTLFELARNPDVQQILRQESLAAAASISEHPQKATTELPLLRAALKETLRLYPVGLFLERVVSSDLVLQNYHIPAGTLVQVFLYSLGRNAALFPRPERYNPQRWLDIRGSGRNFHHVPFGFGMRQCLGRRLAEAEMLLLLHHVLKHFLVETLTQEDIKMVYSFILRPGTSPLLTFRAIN
The assay can be described thus: Inhibition of hCYP11B2 in transfected V79 cells. The conditions noted are these: hamster V79 cells expressing human CYP11B2; substrate 11-deoxycorticosterone 200 nM. The assay is classed as cell-based. The protocol: (§1) Genes of human CYP11B2 and rat NADPH-P450 reductase were transfected into hamster V79 cells using a lentivirus vector, and stably-expressing cell lines were selected by taking advantages of the associated puromycin-resistance gene. Cultured cells were diluted and seeded in a 96-well plate with an amount of approximately 10,000 per well. After pre-incubation with suitable concentrations of the test compounds for 2 hours, 11-deoxycorticosterone of 200 nM was added as the substrate to initiate the catalytic reaction. After further incubation for 30 minutes, it was quenched with ethyl acetate. Subsequently, the substrate and product(s) were quantified using LC-MS/MS or HPLC at 260 nm, and the IC50 values were calculated according to inhibitory percentage.

Another assay concerns the target T2, human CYP11B1 (Homo sapiens, UniProt P15538).
T2 construct: expressed in transfected cells
T2 sequence (P15538 25-503): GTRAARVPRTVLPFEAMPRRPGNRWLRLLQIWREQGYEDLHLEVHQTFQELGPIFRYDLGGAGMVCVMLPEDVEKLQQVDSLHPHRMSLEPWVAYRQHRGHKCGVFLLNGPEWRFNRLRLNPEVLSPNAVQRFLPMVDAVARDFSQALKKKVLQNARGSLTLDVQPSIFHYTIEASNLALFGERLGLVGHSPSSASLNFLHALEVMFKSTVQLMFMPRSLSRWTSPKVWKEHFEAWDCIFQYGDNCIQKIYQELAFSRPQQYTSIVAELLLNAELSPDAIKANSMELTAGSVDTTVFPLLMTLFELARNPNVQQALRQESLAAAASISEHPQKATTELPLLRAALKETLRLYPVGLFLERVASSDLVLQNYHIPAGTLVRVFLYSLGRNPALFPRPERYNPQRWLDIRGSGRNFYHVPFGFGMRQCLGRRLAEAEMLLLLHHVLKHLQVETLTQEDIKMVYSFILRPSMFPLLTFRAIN
The assay is described as follows: Inhibition of hCYP11B1 in transfected V79 cells. Type of assay: cell-based. The conditions noted are these: hamster V79 cells expressing human CYP11B1; substrate 11-deoxycortisol 200 nM. The protocol:
as §1, with “CYP11B1” for “CYP11B2”, “11-deoxycortisol” for “11-deoxycorticosterone”

As for `N#Cc1ccc(-c2cncc3c2CCN3C(=O)c2cccc([N+](=O)[O-])c2)cc1` [C27, 4-(1-(3-Nitrobenzoyl)-2,3-dihydro-1H-pyrrolo[2,3-c]pyridin-4-yl)benzonitrile], the IC50 turned out to be 0.0023 µM against human CYP11B2 and 0.117 µM at human CYP11B1.

Regarding `N#Cc1ccc(-c2cncc3c2CCN3C(=O)c2cccc(F)c2)cc1` [C28, 4-(1-(3-fluorobenzoyl)-2,3-dihydro-1H-pyrrolo[2,3-c]pyridin-4-yl)benzonitrile], the half-maximal inhibitory concentration (IC50) at human CYP11B2 came out at 0.007 µM; at human CYP11B1, 0.31 µM.

Consider `N#Cc1ccc(-c2cncc3c2CCN3C(=O)c2cccnc2)cc1` [C29, 4-(1-Nicotinoyl-2,3-dihydro-1H-pyrrolo[2,3-c]pyridin-4-yl)benzonitrile], for which the IC50 on human CYP11B2 is 0.0017 µM; against human CYP11B1, 0.185 µM.

Consider `N#Cc1ccc(-c2cncc3c2CCN3C(=O)c2ccc([N+](=O)[O-])cc2)cc1` [C30, 4-(1-(4-Nitrobenzoyl)-2,3-dihydro-1H-pyrrolo[2,3-c]pyridin-4-yl)benzonitrile], for which the 50% inhibitory concentration (IC50) was determined as 0.011 µM against human CYP11B2 and 0.472 µM against human CYP11B1.

Turning to `N#Cc1ccc(-c2cncc3c2CCN3C(=O)c2ccccc2F)cc1` [C31, 4-(1-(2-Fluorobenzoyl)-2,3-dihydro-1H-pyrrolo[2,3-c]pyridin-4-yl)benzonitrile], the values for the half-maximal inhibitory concentration (IC50) at human CYP11B2 and on human CYP11B1 were 0.0046 µM and 0.305 µM, respectively.

As to `N#Cc1ccc(-c2cncc3c2CCN3C(=O)c2ccccc2C(F)(F)F)cc1` [C32, 4-(1-(2-(Trifluoromethyl)benzoyl)-2,3-dihydro-1H-pyrrolo[2,3-c]pyridin-4-yl)benzonitrile], the IC50 against human CYP11B2 came out at 0.018 µM; against human CYP11B1, 0.233 µM.

As for `Cc1ccc(C(=O)N2CCc3c(-c4ccc(C#N)cc4)cncc32)cc1` [C33, 4-(1-(4-Methylbenzoyl)-2,3-dihydro-1H-pyrrolo[2,3-c]pyridin-4-yl)benzonitrile], the 50% inhibitory concentration (IC50) at human CYP11B2 was found to be 0.025 µM; against human CYP11B1 it was 0.245 µM.

For the compound `COc1ccccc1C(=O)N1CCc2c(-c3ccc(C#N)cc3)cncc21` [C34, 4-(1-(2-Methoxybenzoyl)-2,3-dihydro-1H-pyrrolo[2,3-c]pyridin-4-yl)benzonitrile], the IC50 was 0.022 µM on human CYP11B2 and 0.284 µM against human CYP11B1.

For the compound `N#Cc1ccc(-c2cncc3c2CCN3C(=O)c2ccccc2[N+](=O)[O-])cc1` [C35, 4-(1-(2-Nitrobenzoyl)-2,3-dihydro-1H-pyrrolo[2,3-c]pyridin-4-yl)benzonitrile], the IC50 against human CYP11B2 was 0.031 µM; against human CYP11B1, 0.459 µM.

As for `Cc1ccccc1C(=O)N1CCc2c(-c3ccc(C#N)cc3)cncc21` [C36, 4-(1-(2-Methylbenzoyl)-2,3-dihydro-1H-pyrrolo[2,3-c]pyridin-4-yl)benzonitrile], the IC50 worked out at 0.028 µM against human CYP11B2 and 0.297 µM against human CYP11B1.

On to `N#Cc1ccc(-c2cncc3c2CCN3C(=O)c2cccc(C#N)c2)cc1` [C37, 3-(4-(4-Cyanophenyl)-2,3-dihydro-1H-pyrrolo[2,3-c]pyridine-1-carbonyl)benzonitrile], for which the 50% inhibitory concentration (IC50) at human CYP11B2 was 0.06 µM; on human CYP11B1, 0.766 µM.

Consider `N#Cc1ccc(-c2cncc3c2CCN3C(=O)c2ccc(Cl)cc2)cc1` [C38, 4-(1-(4-Chlorobenzoyl)-2,3-dihydro-1H-pyrrolo[2,3-c]pyridin-4-yl)benzonitrile], for which the half-maximal inhibitory concentration (IC50) came out at 0.04 µM against human CYP11B2 and 0.606 µM against human CYP11B1.

Regarding `N#Cc1ccc(-c2cncc3c2CCN3C(=O)c2cccc(Cl)c2)cc1` [C39, 4-(1-(3-Chlorobenzoyl)-2,3-dihydro-1H-pyrrolo[2,3-c]pyridin-4-yl)benzonitrile], the IC50 at human CYP11B2 came to 0.023 µM; against human CYP11B1, 0.298 µM.

In the case of `Cc1cccc(C(=O)N2CCc3c(-c4ccc(C#N)cc4)cncc32)c1` [C40, 4-(1-(3-Methylbenzoyl)-2,3-dihydro-1H-pyrrolo[2,3-c]pyridin-4-yl)benzonitrile], the IC50 against human CYP11B2 amounted to 0.029 µM; on human CYP11B1, 0.352 µM.

With `N#Cc1ccc(-c2cncc3c2CCN3C(=O)c2ccccc2)cc1` [C41, 4-(1-Benzoyl-2,3-dihydro-1H-pyrrolo[2,3-c]pyridin-4-yl)benzonitrile], the IC50 at human CYP11B2 amounted to 0.04 µM; against human CYP11B1, 0.353 µM.

As for `CC(C)(C)C(=O)N1CCc2c(-c3ccc(C#N)cc3)cncc21` [C42, 4-(1-Pivaloyl-2,3-dihydro-1H-pyrrolo[2,3-c]pyridin-4-yl)benzonitrile], the concentration for half-maximal inhibition (IC50) at human CYP11B2 is 0.045 µM; on human CYP11B1, 1.57 µM.

On to `N#Cc1ccc(-c2cncc3c2CCN3C(=O)CCl)cc1` [C43, 4-(1-(2-Chloroacetyl)-2,3-dihydro-1H-pyrrolo[2,3-c]pyridin-4-yl)benzonitrile], for which the half-inhibitory concentration (IC50) against human CYP11B2 was found to be 0.099 µM; against human CYP11B1 it was 0.897 µM.

Take `N#Cc1ccc(-c2cncc3c2CCN3C(=O)c2ccco2)cc1` [C44, 4-(1-(Furan-2-carbonyl)-2,3-dihydro-1H-pyrrolo[2,3-c]pyridin-4-yl)benzonitrile]: the IC50 against human CYP11B2 is 0.027 µM; on human CYP11B1, 0.139 µM.

On to `Cc1ccsc1C(=O)N1CCc2c(-c3ccc(C#N)cc3)cncc21` [C45, 4-(1-(3-Methylthiophene-2-carbonyl)-2,3-dihydro-1H-pyrrolo[2,3-c]pyridin-4-yl)benzonitrile], for which the IC50 came out at 0.02 µM against human CYP11B2 and 0.152 µM against human CYP11B1.

Turning to `N#Cc1ccc(-c2cncc3c2CCN3C(=O)c2cccs2)cc1` [C46, 4-(1-(Thiophene-2-carbonyl)-2,3-dihydro-1H-pyrrolo[2,3-c]pyridin-4-yl)benzonitrile], the values for the half-maximal inhibitory concentration (IC50) against human CYP11B2 and on human CYP11B1 were 0.0054 µM and 0.274 µM, respectively.

In the case of `COC(=O)c1ccc(C(=O)N2CCc3c(-c4ccc(C#N)cc4)cncc32)cc1` [C47], the IC50 against human CYP11B2 stood at 0.017 µM; on human CYP11B1 it was 0.019 µM.

Consider `N#Cc1ccc(C(=O)N2CCc3c(-c4ccc(C#N)cc4)cncc32)cc1` [C48, 4-(1-(4-Cyanobenzoyl)-2,3-dihydro-1H-pyrrolo[2,3-c]pyridin-4-yl)benzonitrile], for which the half-maximal inhibitory concentration (IC50) came out at 0.0073 µM on human CYP11B2 and 0.762 µM against human CYP11B1.

For `N#Cc1ccc(-c2cncc3c2CCN3C(=O)c2ccc(CBr)cc2)cc1` [C49, 4-(1-(4-(Bromomethyl)benzoyl)-2,3-dihydro-1H-pyrrolo[2,3-c]pyridin-4-yl)benzonitrile], the half-inhibitory concentration (IC50) on human CYP11B2 worked out at 0.025 µM; against human CYP11B1, 0.971 µM.

Consider `O=C(c1ccccc1F)N1CCc2c(-c3ccc4[nH]ncc4c3)cncc21` [C50, (4-(1H-Indazol-5-yl)-2,3-dihydro-1H-pyrrolo[2,3-c]pyridin-1-yl)(2-fluorophenyl)methanone], for which the IC50 is 0.097 µM against human CYP11B2 and 1.27 µM on human CYP11B1.

Consider `Cn1ncc2cc(-c3cncc4c3CCN4C(=O)c3ccccc3F)ccc21` [C51, (2-Fluorophenyl)(4-(1-methyl-1H-indazol-5-yl)-2,3-dihydro-1H-pyrrolo[2,3-c]pyridin-1-yl)methanone], for which the results for the IC50 on human CYP11B2 and on human CYP11B1 were 0.023 µM and 4.25 µM, respectively.

As to `O=C(c1ccccc1F)N1CCc2c(-c3cccc(F)c3)cncc21` [C52, (2-fluorophenyl)(4-(3-fluorophenyl)-2,3-dihydro-1H-pyrrolo[2,3-c]pyridin-1-yl)methanone], the IC50 amounted to 0.044 µM on human CYP11B2 and 0.891 µM against human CYP11B1.

Consider `O=C(c1ccccc1F)N1CCc2c(-c3cccc([N+](=O)[O-])c3)cncc21` [C53, (2-Fluorophenyl)(4-(3-nitrophenyl)-2,3-dihydro-1H-pyrrolo[2,3-c]pyridin-1-yl)methanone], for which the concentration for half-maximal inhibition (IC50) against human CYP11B2 came out at 0.011 µM; at human CYP11B1 it was 0.378 µM.

In the case of `O=C(c1ccccc1F)N1CCc2c(-c3ccc(Cl)cc3)cncc21` [C54, (4-(4-Chlorophenyl)-2,3-dihydro-1H-pyrrolo[2,3-c]pyridin-1-yl)(2-fluorophenyl)methanone], the concentration for half-maximal inhibition (IC50) against human CYP11B2 was found to be 0.045 µM; at human CYP11B1, 0.895 µM.

By IC50 is commonly meant the midpoint of a concentration-inhibition curve.
